Patent publication US20160302411A1, “BLENDS AND THEIR USE IN THE CONTROLLING AND/OR TRAPPING OF MOTHS” (BIOFORSK (THE NORWEGIAN INSTITUTE FOR AGRICULTURAL AND …, priority 2013, published 2016)

Each compound was assayed on antennae of mated female C. nigricana (assay: GC-EAD electro-antennography, antennal response to synthetic pea volatiles). Conditions: 10 μg in 10 μl hexane on filter paper, puff 10 ml/sec during 0.2 sec.
Design: species or system Cydia nigricana
Experimental: C. nigricana were collected as larvae in the North of Hesse, Germany. The keeping of the insects followed the protocol of Thöming and Saucke (2011). Emerging adults mated in Plexiglas cages (30×30×30 cm) in a climate chamber (18±2° C., 60-70% RH, 18:6h L:D). The moths were provided with 10%-honey water solution and water until the experiment. Antennal recordings and wind tunnel tests were done with five-to-seven-days old mated females. After the experiments, females were dissected to verify their mating status and only mated females were used for analysis.
The synthetic odour sources were prepared to mimic natural pea flower odour. The quantity, ratio and blend composition was based on the identification and quantification of compounds emitted from detached pea flowers (50 flowers/headspace sample; mean value, n=10) of P. sativum (cv. AVOLA). The synthetic analogues of all 28 identified compounds released from pea plant material (Table 1) were used for combined gas chromatography-electroantennal detection (GC-EAD) analysis.
GC-EAD was used for antennal recordings on a HP 6890N gas chromatograph, equipped with an HP-5 (30 m×320 μm×0.25 μm; Agilent, Santa Clara, Calif., US) capillary GC column, programmed from 40° C. (hold for 0.5 min) at 8° C./min to 160° C., then 25° C./min to 230° C. (hold for 4 min), and coupled with an electro-antennogram apparatus (Syntech, Hilversum, The Netherlands). The outlet of the GC column was split in a 1:1 ratio between the flame ionization detector (FID) and a pair of cut pea moth antennae which was connected to the EAD. The antennae were mounted in a holder (Syntech) between two silver electrodes, using electrically conductive Gel (Parker, Fairfield, N.J., US). The EAD capillary effluent was delivered to the antennae through a heated transfer line (Syntech) in a glass tube (12 cm×8 mm) in which humidified air was flowing through. The antennal signal and the FID signal were amplified and recorded simultaneously using Syntech software. Each sample injected on the GC contained 5-9 synthetic compounds with different retention times. Each compound was injected at four doses (200 ng, 60 ng, 20 ng, 6 ng), equivalent to 100 ng, 30 ng, 10 ng, 3 ng tested on the antennae. The antennal responses towards compounds and dose rates, respectively, were replicated three to five times, always using a new pair of antennae. […] Only antennae with differences less than 5 μV between the puff before and after the treatment were used for analysis.

SMILES | antennal response to odour puff (antennal condition test)
C=C/C=C(\C)CCC=C(C)C [DMNT, 4,8-dimethyl-1, (E) 3,7-nonatriene, reference compound] | reproducible antennal responses

Same assay, conditions: GC-EAD dose response over four doses (FIG. 1)

SMILES | increase of antennal response with dose, ANOVA P
C=C/C(C)=C/CC=C(C)C [(E)-β-ocimene] | 0.0051
CCCCCCCCC=O [nonanal] | 0.0067
CCCCCCO [1-hexanol] | 0.0003
C=C/C(C)=C\CC=C(C)C [(Z)-β-ocimene] | 0.0252
CC/C=C\CCOC(C)=O [(Z)-3-hexenyl acetate] | 0.0091
CCC/C=C/CO [(E)-2-hexen-1-ol] | 0.0049
CC/C=C\CCO [(Z)-3-hexenol] | 0.6578
CCC/C=C/C=O [2-(E)-hexenal] | 0.0139
CCCCCCCC=O [octanal] | < 0.0001
